Experimental data reported in US12103915B2, “TEAD inhibitors and methods of uses thereof” (Insilico Medicine IP Limited, priority 2022, dated 2024).

What was measured:
TEAD1 = TEAD1 (Homo sapiens, UniProt P28347); experiment: Thermal shift assay TEAD1; assay type: binding
Procedure, shortened: (§1)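 Protein melt reactions contained TEAD1 (0.2 mg/ml final) or TEAD2 (0.08 mg/ml final) plus compound at 1 or 10 μM in 0.1% DMSO. Thermal unfolding was followed by dye fluorescence on a qPCR instrument.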

TEAD3 = TEAD3 (Homo sapiens, UniProt Q99594); experiment: Thermal shift assay TEAD3; assay type: binding
Procedure, shortened: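 Compounds at 1 or 10 μM (0.1% DMSO, PBS dilution) mixed with 0.1 mg/ml final TEAD3 and thermal shift dye, then run through a qPCR melt to follow protein unfolding.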

NCI-H226 cells = experiment: Cell growth assay (CellTiter-Glo); assay type: cell-based, human; settings: Homo sapiens, NCI-H226, 168 h, 7 days treatment, CellTiter-Glo luminescence, read-out: H226 CTG IC50
TEAD2 = TEAD2 (Homo sapiens, UniProt Q15562); experiment: Thermal shift assay TEAD2; assay type: binding
Procedure, shortened: as §1

TEAD4 = TEAD4 (Homo sapiens, UniProt Q15561); experiment: Thermal shift assay TEAD4; assay type: binding
Procedure, shortened: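 Compounds tested at 1 and 10 μM (0.1% DMSO, PBS) against TEAD4 protein at 0.1 mg/ml final. Melting followed by thermal shift dye fluorescence during a qPCR instrument ramp.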

TEAD4, sequence (Q15561 whole entry, species assumed): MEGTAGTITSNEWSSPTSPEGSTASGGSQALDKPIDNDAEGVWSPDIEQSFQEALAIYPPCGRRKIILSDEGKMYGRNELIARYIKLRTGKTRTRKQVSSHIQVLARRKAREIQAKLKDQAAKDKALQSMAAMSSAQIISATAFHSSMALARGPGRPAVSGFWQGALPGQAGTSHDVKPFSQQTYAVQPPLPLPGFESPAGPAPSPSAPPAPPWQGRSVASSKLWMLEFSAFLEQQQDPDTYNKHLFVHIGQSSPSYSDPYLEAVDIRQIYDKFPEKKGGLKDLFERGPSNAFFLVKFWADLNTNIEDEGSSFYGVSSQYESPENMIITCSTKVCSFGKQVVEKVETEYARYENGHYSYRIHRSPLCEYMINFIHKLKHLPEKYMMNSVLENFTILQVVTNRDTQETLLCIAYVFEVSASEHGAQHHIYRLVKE
TEAD2, sequence (Q15562 whole entry, species assumed): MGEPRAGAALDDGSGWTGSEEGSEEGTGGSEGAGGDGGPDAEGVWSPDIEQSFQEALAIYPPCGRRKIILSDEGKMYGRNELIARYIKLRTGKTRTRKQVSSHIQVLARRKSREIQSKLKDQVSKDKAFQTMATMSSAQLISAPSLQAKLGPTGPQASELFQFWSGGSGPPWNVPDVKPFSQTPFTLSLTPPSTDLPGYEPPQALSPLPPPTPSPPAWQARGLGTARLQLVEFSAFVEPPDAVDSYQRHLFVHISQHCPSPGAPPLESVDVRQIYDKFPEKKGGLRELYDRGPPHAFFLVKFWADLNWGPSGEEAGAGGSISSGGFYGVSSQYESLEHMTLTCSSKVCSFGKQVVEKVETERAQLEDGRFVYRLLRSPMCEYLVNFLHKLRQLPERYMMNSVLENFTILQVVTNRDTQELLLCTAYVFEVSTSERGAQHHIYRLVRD
TEAD3, sequence (Q99594 whole entry, species assumed): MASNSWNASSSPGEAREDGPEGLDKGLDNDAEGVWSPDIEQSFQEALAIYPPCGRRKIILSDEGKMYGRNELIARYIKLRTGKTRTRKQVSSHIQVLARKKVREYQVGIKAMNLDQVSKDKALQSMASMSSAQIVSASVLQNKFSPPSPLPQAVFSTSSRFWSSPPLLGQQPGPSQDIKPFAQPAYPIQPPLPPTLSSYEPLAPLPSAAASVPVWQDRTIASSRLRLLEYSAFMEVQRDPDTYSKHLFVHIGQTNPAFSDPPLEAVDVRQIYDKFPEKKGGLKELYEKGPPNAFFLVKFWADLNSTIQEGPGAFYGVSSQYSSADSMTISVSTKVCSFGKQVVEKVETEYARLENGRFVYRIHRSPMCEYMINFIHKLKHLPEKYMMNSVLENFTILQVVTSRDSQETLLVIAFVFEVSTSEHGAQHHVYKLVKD
TEAD1, sequence (P28347 whole entry, species assumed): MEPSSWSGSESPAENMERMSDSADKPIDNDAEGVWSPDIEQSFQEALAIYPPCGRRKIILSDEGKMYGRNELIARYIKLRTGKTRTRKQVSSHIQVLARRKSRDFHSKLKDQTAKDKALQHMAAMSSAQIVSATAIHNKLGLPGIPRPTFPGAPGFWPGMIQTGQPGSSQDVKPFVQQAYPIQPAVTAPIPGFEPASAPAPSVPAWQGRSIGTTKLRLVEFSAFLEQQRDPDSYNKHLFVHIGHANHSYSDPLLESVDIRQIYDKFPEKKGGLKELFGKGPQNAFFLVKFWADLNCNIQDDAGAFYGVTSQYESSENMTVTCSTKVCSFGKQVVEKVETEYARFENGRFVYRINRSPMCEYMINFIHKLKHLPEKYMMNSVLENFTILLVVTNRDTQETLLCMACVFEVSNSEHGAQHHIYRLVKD

## Cn1cc2cc(Oc3ccc(C(F)(F)F)cc3)cc(C3C[C@H]3C(=O)N3C[C@@H]4C[C@H]3C[C@H]4O)c2n1 (single isomer, unassigned) [Example 103d]
TEAD1
  TEAD1 ΔTm: 9.5 °C
TEAD3
  TEAD3 ΔTm: 10.3 °C
NCI-H226 cells
  IC50: < 100 nM
TEAD2
  TEAD2 ΔTm: 11.6 °C
TEAD4
  TEAD4 ΔTm: 11.2 °C

## Cn1cc2cc(Oc3ccc(C(F)(F)F)cc3)cc(C3C[C@H]3C(=O)N3C[C@H]4C[C@@H]3C[C@H]4O)c2n1 (single isomer, unassigned) [Example 103e]
TEAD1
  TEAD1 ΔTm: 6.9 °C
TEAD3
  TEAD3 ΔTm: 1.8 °C
NCI-H226 cells
  IC50: < 100 nM
TEAD2
  TEAD2 ΔTm: 9.1 °C
TEAD4
  TEAD4 ΔTm: 8.7 °C

## Cn1cc2cc(Oc3ccc(C(F)(F)F)cc3)cc(C3C[C@H]3C(=O)N3[C@@H]4CC[C@H]3C[C@@H](O)C4)c2n1 (single isomer, unassigned) [Example 104]
TEAD1
  TEAD1 ΔTm: 6.5 °C
TEAD3
  TEAD3 ΔTm: 2.0 °C
NCI-H226 cells
  IC50: < 100 nM
TEAD2
  TEAD2 ΔTm: 9.0 °C
TEAD4
  TEAD4 ΔTm: 8.1 °C

## Cn1cc2cc(Oc3ccc(C(F)(F)F)cc3)cc(C3C[C@H]3C(=O)N3[C@@H]4CC[C@H]3C[C@H](O)C4)c2n1 (single isomer, unassigned) [Example 105]
TEAD1
  TEAD1 ΔTm: 6.8 °C
TEAD3
  TEAD3 ΔTm: 2.2 °C
NCI-H226 cells
  IC50: < 100 nM
TEAD2
  TEAD2 ΔTm: 8.2 °C
TEAD4
  TEAD4 ΔTm: 8.1 °C

## Cn1cc2nc(Oc3ccc(C(F)(F)F)cc3)cc([C@H]3C[C@@H]3C(=O)N3CC(O)C3)c2n1 (single isomer, unassigned) [Example 108b]
TEAD1
  TEAD1 ΔTm: 7.9 °C
TEAD3
  TEAD3 ΔTm: 8.8 °C
NCI-H226 cells
  IC50: < 100 nM
TEAD2
  TEAD2 ΔTm: 9.1 °C
TEAD4
  TEAD4 ΔTm: 8.3 °C

## CO[C@@H]1CN(C(=O)[C@@H]2C[C@H]2c2cc(Oc3ccc(C(F)(F)F)cc3)cc3cn(C)nc23)C[C@H]1O (single isomer, unassigned) [Example 112b]
TEAD1
  TEAD1 ΔTm: 8.4 °C
TEAD3
  TEAD3 ΔTm: 1.9 °C
NCI-H226 cells
  IC50: < 100 nM
TEAD2
  TEAD2 ΔTm: 10.2 °C
TEAD4
  TEAD4 ΔTm: 10.1 °C

## Cn1cc2cc(Oc3ccc(C(F)(F)F)cc3)cc([C@@H]3C[C@H]3C(=O)N3CC4CC3C(=O)N4)c2n1 (single isomer, unassigned) [Example 121]
TEAD1
  TEAD1 ΔTm: 7.9 °C
TEAD3
  TEAD3 ΔTm: 2.0 °C
NCI-H226 cells
  IC50: < 100 nM
TEAD2
  TEAD2 ΔTm: 10.6 °C
TEAD4
  TEAD4 ΔTm: 8.9 °C

## Cn1cc2cc(Oc3ccc(C(F)(F)F)cc3)cc([C@@H]3C[C@H]3C(=O)N3CC4CC(C3)N4)c2n1 (single isomer, unassigned) [Example 123]
TEAD1
  TEAD1 ΔTm: 7.7 °C
TEAD3
  TEAD3 ΔTm: 1.8 °C
NCI-H226 cells
  IC50: < 100 nM
TEAD2
  TEAD2 ΔTm: 9.1 °C
TEAD4
  TEAD4 ΔTm: 9.2 °C

## CN(C#N)C(=O)[C@@H]1C[C@H]1c1cc(Oc2ccc(C(F)(F)F)cc2)cc2cn(C)nc12 (single isomer, unassigned) [Example 124]
TEAD1
  TEAD1 ΔTm: 6.0 °C
TEAD3
  TEAD3 ΔTm: 1.0 °C
NCI-H226 cells
  IC50: 1000 to 30000 nM
TEAD2
  TEAD2 ΔTm: 9.8 °C
TEAD4
  TEAD4 ΔTm: 7.7 °C

## Cn1cc2cc(Oc3ccc(C(F)(F)F)cc3)cc([C@@H]3C[C@H]3C(=O)NCCO)c2n1 (single isomer, unassigned) [Example 125]
TEAD1
  TEAD1 ΔTm: 9.1 °C
TEAD3
  TEAD3 ΔTm: 9.3 °C
NCI-H226 cells
  IC50: < 100 nM
TEAD2
  TEAD2 ΔTm: 11.9 °C
TEAD4
  TEAD4 ΔTm: 9.6 °C

## Cn1cc2cc(Oc3ccc(C(F)(F)F)c(F)c3)cc([C@@H]3C[C@H]3C(=O)N3CC(O)C3)c2n1 (single isomer, unassigned) [Example 132]
TEAD1
  TEAD1 ΔTm: 10.9 °C
TEAD3
  TEAD3 ΔTm: 13.9 °C
NCI-H226 cells
  IC50: < 100 nM
TEAD2
  TEAD2 ΔTm: 15.8 °C
TEAD4
  TEAD4 ΔTm: 13.7 °C

## Cn1cc2cc(Oc3ccc(C(F)(F)F)cc3)cc([C@@H]3C[C@H]3C(=O)N=S(C)(C)=O)c2n1 (single isomer, unassigned) [Example 134]
TEAD1
  TEAD1 ΔTm: 6.8 °C
TEAD3
  TEAD3 ΔTm: 1.5 °C
NCI-H226 cells
  IC50: < 100 nM
TEAD2
  TEAD2 ΔTm: 6.0 °C
TEAD4
  TEAD4 ΔTm: 5.8 °C

## Cn1cc2cc(Oc3ccc(C(F)(F)F)cc3)cc([C@@H]3C[C@H]3C(=O)N3CCC34CC(=O)C4)c2n1 (single isomer, unassigned) [Example 135]
TEAD1
  TEAD1 ΔTm: 25.0 °C
TEAD3
  TEAD3 ΔTm: 18.0 °C
NCI-H226 cells
  IC50: 100 to 500 nM
TEAD2
  TEAD2 ΔTm: 25.0 °C
TEAD4
  TEAD4 ΔTm: 6.9 °C

## Cn1cc2cc(Oc3ccc(Cl)cc3)cc([C@@H]3C[C@H]3C(=O)N3C[C@@H]4C[C@H]3C[C@@H]4O)c2n1 (single isomer, unassigned) [Example 139]
TEAD1
  TEAD1 ΔTm: 5.5 °C
TEAD3
  TEAD3 ΔTm: 2.8 °C
NCI-H226 cells
  IC50: < 100 nM
TEAD2
  TEAD2 ΔTm: 9.2 °C
TEAD4
  TEAD4 ΔTm: 7.6 °C

## Cn1cc2cc(Oc3ccc(C(F)(F)F)c(F)c3)cc([C@@H]3C[C@H]3C(=O)N3C[C@@H]4C[C@H]3C[C@@H]4O)c2n1 (single isomer, unassigned) [Example 140]
TEAD1
  TEAD1 ΔTm: 7.6 °C
TEAD3
  TEAD3 ΔTm: 8.9 °C
NCI-H226 cells
  IC50: < 100 nM
TEAD2
  TEAD2 ΔTm: 11.1 °C
TEAD4
  TEAD4 ΔTm: 10.6 °C

## CN(C)C(=O)[C@@H]1C[C@H]1c1cc(Oc2ccc(C(F)(F)F)c(F)c2)cc2cn(C)nc12 (single isomer, unassigned) [Example 141]
TEAD1
  TEAD1 ΔTm: 9.3 °C
TEAD3
  TEAD3 ΔTm: 11.4 °C
NCI-H226 cells
  IC50: < 100 nM
TEAD2
  TEAD2 ΔTm: 16.2 °C
TEAD4
  TEAD4 ΔTm: 12.0 °C

## CNC(=O)[C@@H]1CC1c1cc(-c2ccc(C(F)(F)F)cc2)cc2c1cnn2C (stereo partly drawn) [Example 40]
TEAD1
  TEAD1 ΔTm: 1.9 °C
TEAD3
  TEAD3 ΔTm: 0.2 °C
NCI-H226 cells
  IC50: 100 to 500 nM
TEAD2
  TEAD2 ΔTm: 2.7 °C
TEAD4
  TEAD4 ΔTm: 0.7 °C

## CNS(=O)(=O)/C=C/c1cc(-c2ccc(C(F)(F)F)cc2)cc2c1cnn2C [Example 41]
TEAD1
  TEAD1 ΔTm: 2.1 °C
TEAD3
  TEAD3 ΔTm: 0.7 °C
NCI-H226 cells
  IC50: < 100 nM
TEAD2
  TEAD2 ΔTm: 1.2 °C
TEAD4
  TEAD4 ΔTm: 1.4 °C

## CNS(=O)(=O)CCc1cc(-c2ccc(C(F)(F)F)cc2)cc2c1cnn2C [Example 42]
TEAD1
  TEAD1 ΔTm: 7.3 °C
TEAD3
  TEAD3 ΔTm: 3.5 °C
NCI-H226 cells
  IC50: < 100 nM
TEAD2
  TEAD2 ΔTm: 4.1 °C
TEAD4
  TEAD4 ΔTm: 3.8 °C

## CC(=O)NS(=O)(=O)CCc1cc(-c2ccc(C(F)(F)F)cc2)cc2cn(C)nc12 [Example 46]
TEAD1
  TEAD1 ΔTm: 10.4 °C
TEAD3
  TEAD3 ΔTm: 7.2 °C
NCI-H226 cells
  IC50: 1000 to 30000 nM
TEAD2
  TEAD2 ΔTm: 10.9 °C
TEAD4
  TEAD4 ΔTm: 11.2 °C

## CNS(=O)(=O)CCCc1cc(-c2ccc(C(F)(F)F)cc2)cc2cn(C)nc12 [Example 47]
TEAD1
  TEAD1 ΔTm: 4.7 °C
TEAD3
  TEAD3 ΔTm: −0.8 °C
NCI-H226 cells
  IC50: 1000 to 30000 nM
TEAD2
  TEAD2 ΔTm: 1.9 °C
TEAD4
  TEAD4 ΔTm: 5.7 °C

## CNS(=O)(=O)CCc1cc(N2CCC3(CCCC3)CC2)cc2cn(C)nc12 [Example 48]
TEAD1
  TEAD1 ΔTm: 6.3 °C
TEAD3
  TEAD3 ΔTm: 1.9 °C
NCI-H226 cells
  IC50: 1000 to 30000 nM
TEAD2
  TEAD2 ΔTm: 9.4 °C
TEAD4
  TEAD4 ΔTm: 8.4 °C

## CNS(=O)(=O)CCc1cc(Oc2ccc(C(F)(F)F)cc2)cc2cccnc12 [Example 142]
TEAD1
  TEAD1 ΔTm: 8.9 °C
TEAD3
  TEAD3 ΔTm: 10.2 °C
NCI-H226 cells
  IC50: 100 to 500 nM
TEAD2
  TEAD2 ΔTm: 11.4 °C
TEAD4
  TEAD4 ΔTm: 9.7 °C

## CNS(=O)(=O)CCc1cc(Oc2ccc(C(F)(F)F)cc2)cc2c1NCCC2 [Example 143]
TEAD1
  TEAD1 ΔTm: 9.6 °C
TEAD3
  TEAD3 ΔTm: 10.3 °C
NCI-H226 cells
  IC50: < 100 nM
TEAD2
  TEAD2 ΔTm: 13.2 °C
TEAD4
  TEAD4 ΔTm: 8.8 °C
